Test results as given in US4298727A, “3',4'-Dideoxykanamycin A and 1-N-(S)-α-hydroxy-ω-aminoalkanoyl) derivatives thereof” (Zaidan Hojin Biseibutsu Kagaku KenkyuKai, priority 1979, dated 1981).
Converted amounts (≈) assume the structure as drawn.

Columns and labels:
[1] = system: Klebsiella THO; experiment: MIC, standard serial dilution on nutrient agar; assay type: cell-based; conditions: Klebsiella, 18 h
Protocol: (§1) The minimum inhibitory concentrations (mcg/ml) of the new compounds of this invention against various microorganisms were determined according to a standard serial dilution method using nutrient agar incubation medium at 37° C., the estimation being made after 18 hours incubation.

[2] = system: Staphylococcus epidermides 109; experiment: MIC, standard serial dilution on nutrient agar; assay type: cell-based; conditions: Staphylococcus, 109, 18 h
Protocol: as §1

[3] = system: Staphylococcus aureus APOI; experiment: MIC, standard serial dilution on nutrient agar; assay type: cell-based; conditions: Staphylococcus aureus, 18 h
Protocol: as §1

[4] = system: Klebsiella pneumoniae 22 #3038; experiment: MIC, standard serial dilution on nutrient agar; assay type: cell-based; conditions: Klebsiella pneumoniae, 18 h
[5] = system: Enterobacter HAU; experiment: MIC, standard serial dilution on nutrient agar; assay type: cell-based; conditions: Enterobacter, 18 h
Protocol: as §1

[6] = system: Erwinia 7-22; experiment: MIC, standard serial dilution on nutrient agar; assay type: cell-based; conditions: 722, 37° C., 18 hours
Protocol: as §1

[7] = system: Proteus vulgaris BAC; experiment: MIC, standard serial dilution on nutrient agar; assay type: cell-based; conditions: Proteus vulgaris, 18 h
Protocol: as §1

[8] = system: Serratia BOT; experiment: MIC, standard serial dilution on nutrient agar; assay type: cell-based; conditions: Serratia, 18 h
Protocol: as §1

[9] = system: Klebsiella HOU; experiment: MIC, standard serial dilution on nutrient agar; assay type: cell-based; conditions: Klebsiella, 18 h
Protocol: as §1

[10] = system: Providencia Pv 37; experiment: MIC, standard serial dilution on nutrient agar; assay type: cell-based; conditions: PV37, 37° C., 18 hours
Protocol: as §1

[11] = system: Enterobacter 666; experiment: MIC, standard serial dilution on nutrient agar; assay type: cell-based; conditions: 37° C., 18 hours
Protocol: as §1

[12] = system: Serratia CAT; experiment: MIC, standard serial dilution on nutrient agar; assay type: cell-based; conditions: Serratia, 18 h
Protocol: as §1

[13] = system: resistant bacteria; conditions: in words, background art; cited from earlier work
[14] = system: Serratia 7; experiment: MIC, standard serial dilution on nutrient agar; assay type: cell-based; conditions: Serratia, 7, 18 h
Protocol: as §1

[15] = system: Escherichia coli K-12; experiment: MIC, standard serial dilution on nutrient agar; assay type: cell-based; conditions: K12, 37° C., 18 hours
[16] = system: Staphylococcus aureus 209P; experiment: MIC, standard serial dilution on nutrient agar; assay type: cell-based; conditions: Staphylococcus aureus, 209P, 18 h
Protocol: as §1

[17] = system: Escherichia coli K-12 ML 1629; experiment: MIC, standard serial dilution on nutrient agar; assay type: cell-based; conditions: K12ML1629, 37° C., 18 hours
[18] = acute toxicity, intravenous injection in mice; assay type: in vivo; conditions: mouse, in vivo
Text: Therefore, the new compounds of this invention are useful in therapeutic treatment of infections by various gram-negative and gram-positive bacteria, including the resistant bacterial strains. […] Accordingly, the low toxicity of the above new compounds of general formula (I) according to this invention is note-worthy, and the low toxicity of the new compounds of this invention with retaining the antibacterial activity substantially as high as that of the above-described known drugs will facilitate the clinical use of the new compounds, fulfilling the modern demand for providing efficient and less toxic drugs.

[19] = system: Klebsiella BRIA; experiment: MIC, standard serial dilution on nutrient agar; assay type: cell-based; conditions: Klebsiella, 18 h
Protocol: as §1

[20] = system: Proteus rettgeri AUB; experiment: MIC, standard serial dilution on nutrient agar; assay type: cell-based; conditions: Providencia rettgeri, 18 h
Protocol: as §1

[21] = system: Providencia 19; experiment: MIC, standard serial dilution on nutrient agar; assay type: cell-based; conditions: Providencia, 19, 18 h
Protocol: as §1

[22] = system: Pyocyanique; experiment: MIC, standard serial dilution on nutrient agar; assay type: cell-based; conditions: 18 h
Protocol: as §1

[23] = system: Pseudomonas aeruginosa A3; experiment: MIC, standard serial dilution on nutrient agar; assay type: cell-based; conditions: Pseudomonas aeruginosa, A3, 18 h
Protocol: as §1

[24] = system: Sarcina lutea PCI 1001; experiment: MIC, standard serial dilution on nutrient agar; assay type: cell-based; conditions: Micrococcus luteus, PCI1001, 18 h
Protocol: as §1

[25] = system: Providencia ZAO; experiment: MIC, standard serial dilution on nutrient agar; assay type: cell-based; conditions: Providencia, 18 h
Protocol: as §1

NC[C@@H]1CC[C@@H](N)[C@@H](O[C@H]2[C@H](O)[C@@H](O[C@H]3O[C@H](CO)[C@@H](O)[C@H](N)[C@H]3O)[C@H](N)C[C@@H]2N)O1 [Dibekacin, 3',4'-dideoxykanamycin B]
MIC [1]: 1.56 µg/mL (≈ 3.45 µM)
MIC [2]: 0.78 µg/mL (≈ 1.73 µM)
MIC [3]: 0.78 µg/mL (≈ 1.73 µM)
MIC [4]: > 100 µg/mL
MIC [5]: > 100 µg/mL
MIC [6]: > 100 µg/mL
MIC [7]: 12.5 µg/mL (≈ 27.7 µM)
MIC [8]: 25 µg/mL (≈ 55.4 µM)
MIC [9]: > 100 µg/mL
MIC [10]: > 100 µg/mL
MIC [11]: > 100 µg/mL
MIC [12]: 6.25 µg/mL (≈ 13.8 µM)
activity against resistant bacteria [13]: remarkably active against a wide variety of resistant bacteria
MIC [14]: > 100 µg/mL
MIC [15]: 1.56 µg/mL (≈ 3.45 µM)
MIC [16]: 0.78 µg/mL (≈ 1.73 µM)
MIC [17]: 1.56 µg/mL (≈ 3.45 µM)
LD50 [18]: 80 to 120 mg/kg
MIC [19]: > 100 µg/mL
MIC [20]: 100 µg/mL (≈ 221 µM)
MIC [21]: > 100 µg/mL
MIC [22]: 6.25 µg/mL (≈ 13.8 µM)
MIC [23]: 0.78 µg/mL (≈ 1.73 µM)
MIC [24]: 25 µg/mL (≈ 55.4 µM)
MIC [25]: > 100 µg/mL
